Experimental data published in the NIST ThermoML archive (doi:10.1016/j.jct.2007.05.011).

Assay: xn = mol fraction of the nth substance listed
Conditions: 101 kPa, Liquid; for mass density: Vibrating tube method

NCCO.O=CO [2-hydroxyethylammonium formate] + O
Conditions | mass density [kg/m3] | speed of sound [m/s]
288.15 K, x2 = 0 | 1183.57 | 1733.9
288.15 K, x2 = 0.047 | 1182.89 | 1759.2
288.15 K, x2 = 0.108 | 1181.45 | 1760.3
288.15 K, x2 = 0.199 | 1178.55 | 1761.4
288.15 K, x2 = 0.311 | 1173.68 | 1761.4
288.15 K, x2 = 0.4 | 1168.78 | 1759.7
288.15 K, x2 = 0.492 | 1162.23 | 1757.1
288.15 K, x2 = 0.601 | 1151.56 | 1749.9
288.15 K, x2 = 0.699 | 1137.39 | 1739.3
288.15 K, x2 = 0.8 | 1114.92 | 1710.8
288.15 K, x2 = 0.9 | 1076.21 | 1644.7
288.15 K, x2 = 0.95 | 1045.03 | 1578.9
290.65 K, x2 = 0 | 1181.81 | 1727.4
290.65 K, x2 = 0.047 | 1181.24 | 1754
290.65 K, x2 = 0.108 | 1179.79 | 1755.5
290.65 K, x2 = 0.199 | 1176.92 | 1756.4
290.65 K, x2 = 0.311 | 1172.05 | 1756.7
290.65 K, x2 = 0.4 | 1167.17 | 1755.1
290.65 K, x2 = 0.492 | 1160.63 | 1752.9
290.65 K, x2 = 0.601 | 1149.99 | 1746.3
290.65 K, x2 = 0.699 | 1135.87 | 1736.3
290.65 K, x2 = 0.8 | 1113.52 | 1709.2
290.65 K, x2 = 0.9 | 1075.06 | 1645.8
290.65 K, x2 = 0.95 | 1044.13 | 1582.3
293.15 K, x2 = 0 | 1180.04 | 1721.3
293.15 K, x2 = 0.047 | 1179.6 | 1748.9
293.15 K, x2 = 0.108 | 1178.13 | 1750.5
293.15 K, x2 = 0.199 | 1175.29 | 1751.4
293.15 K, x2 = 0.311 | 1170.43 | 1752
293.15 K, x2 = 0.4 | 1165.55 | 1750.6
293.15 K, x2 = 0.492 | 1159.04 | 1748.7
293.15 K, x2 = 0.601 | 1148.42 | 1742.6
293.15 K, x2 = 0.699 | 1134.35 | 1733.3
293.15 K, x2 = 0.8 | 1112.1 | 1707.5
293.15 K, x2 = 0.9 | 1073.89 | 1646.8
293.15 K, x2 = 0.95 | 1043.2 | 1585.6
295.65 K, x2 = 0 | 1178.27 | 1715.1
295.65 K, x2 = 0.047 | 1177.95 | 1743.8
295.65 K, x2 = 0.108 | 1176.52 | 1745.4
295.65 K, x2 = 0.199 | 1173.65 | 1746.5
295.65 K, x2 = 0.311 | 1168.8 | 1747.2
295.65 K, x2 = 0.4 | 1163.94 | 1746.1
295.65 K, x2 = 0.492 | 1157.44 | 1744.4
295.65 K, x2 = 0.601 | 1146.85 | 1738.9
295.65 K, x2 = 0.699 | 1132.83 | 1730.2
295.65 K, x2 = 0.8 | 1110.67 | 1705.6
295.65 K, x2 = 0.9 | 1072.7 | 1647.6
295.65 K, x2 = 0.95 | 1042.26 | 1588.8
298.15 K, x2 = 0 | 1176.49 | 1709
298.15 K, x2 = 0.047 | 1176.31 | 1738.7
298.15 K, x2 = 0.108 | 1174.91 | 1740.4
298.15 K, x2 = 0.199 | 1172.02 | 1741.6
298.15 K, x2 = 0.311 | 1167.18 | 1742.5
298.15 K, x2 = 0.4 | 1162.32 | 1741.6
298.15 K, x2 = 0.492 | 1155.83 | 1740.2
298.15 K, x2 = 0.601 | 1145.28 | 1735.1
298.15 K, x2 = 0.699 | 1131.3 | 1727.1
298.15 K, x2 = 0.8 | 1109.23 | 1703.7
298.15 K, x2 = 0.9 | 1071.48 | 1648.3
298.15 K, x2 = 0.95 | 1041.28 | 1591.7
300.65 K, x2 = 0 | 1174.71 | 1702.9
300.65 K, x2 = 0.047 | 1174.67 | 1733.6
300.65 K, x2 = 0.108 | 1173.29 | 1735.3
300.65 K, x2 = 0.199 | 1170.39 | 1736.7
300.65 K, x2 = 0.311 | 1165.55 | 1737.8
300.65 K, x2 = 0.4 | 1160.7 | 1737.1
300.65 K, x2 = 0.492 | 1154.23 | 1735.9
300.65 K, x2 = 0.601 | 1143.7 | 1731.2
300.65 K, x2 = 0.699 | 1129.77 | 1723.9
300.65 K, x2 = 0.8 | 1107.79 | 1701.8
300.65 K, x2 = 0.9 | 1070.24 | 1648.7
300.65 K, x2 = 0.95 | 1040.27 | 1594.4
303.15 K, x2 = 0 | 1172.94 | 1696.8
303.15 K, x2 = 0.047 | 1173.02 | 1728.5
303.15 K, x2 = 0.108 | 1171.66 | 1730.3
303.15 K, x2 = 0.199 | 1168.76 | 1731.8
303.15 K, x2 = 0.311 | 1163.93 | 1733.1
303.15 K, x2 = 0.4 | 1159.09 | 1732.6
303.15 K, x2 = 0.492 | 1152.62 | 1731.6
303.15 K, x2 = 0.601 | 1142.12 | 1727.4
303.15 K, x2 = 0.699 | 1128.22 | 1720.7
303.15 K, x2 = 0.8 | 1106.33 | 1699.7
303.15 K, x2 = 0.9 | 1068.98 | 1649
303.15 K, x2 = 0.95 | 1039.22 | 1596.8
305.65 K, x2 = 0 | 1171.16 | –
305.65 K, x2 = 0.047 | 1171.38 | –
305.65 K, x2 = 0.108 | 1170.03 | –
305.65 K, x2 = 0.199 | 1167.12 | –
305.65 K, x2 = 0.311 | 1162.3 | –
305.65 K, x2 = 0.4 | 1157.47 | –
305.65 K, x2 = 0.492 | 1151.02 | –
305.65 K, x2 = 0.601 | 1140.53 | –
305.65 K, x2 = 0.699 | 1126.67 | –
305.65 K, x2 = 0.8 | 1104.86 | –
305.65 K, x2 = 0.9 | 1067.69 | –
305.65 K, x2 = 0.95 | 1038.12 | –
